EP0540143B1, “Compounds and methods for inhibition of HIV and related viruses” (priority 1991, dated 1993)

Experiments:
HIV virus = assay: Test A (XTT), MT4 cells infected with HIV; type: cell-based; conditions: for inhibition at 0.1 µg/mL / inhibition at 1 µg/mL / inhibition at 10 µg/mL / inhibition at 100 µg/mL: Human immunodeficiency virus 1, MT4, Test A; for % inhibition: Test A
Description: (§1) Tests A, B, C, and D (XTT)
(§2) MT4 cells in a medium of RPMI 1640, 5% FCS, penicillin/streptomycin are adjusted to 2x10^5 cells/ml and seeded into microplates (96 wells/plate) 100 µl cell suspension/well giving 2x10^4 cells/well. The compound to be tested is made into a 10 mg/ml mixture in DMSO and stored at -20°C. The compound in DMSO is diluted with medium containing 10% DMSO in a 10-fold dilution series to give 1 mg/ml, 10 mg/ml, and […] solutions. Further dilutions to 400, 40, 4 and 0.4 mg/ml are made in medium containing microplates. Fifty µl of the 400, 40, and 4 mg/ml are transferred to the cell-containing microplates with a multi-channel pipette (final concentration: 100, 10, and 1 mg/ml). Finally, 50 µl of virus suspension is added to each well (with a repetitive "Eppendorf" multipipett). Each plate has at least six wells with the following: [Test A: HIV virus; Test B: HIV(II) virus; Test C: SIV virus; Test D: No virus]; with no drug (virus control) and six wells without virus (medium control). The plate is put into a plastic bag and incubated for six days in CO2 atmosphere. To each well in the plate is added 50 µl of XTT ((2,3-bis[2-methoxy-4-nitro-5-sulfophenyl]-5-[(phenylamino)carbonyl]-2H-tetrazolium hydroxide), (1 mg/ml 0.01-0.02 mM N-metyl-phenazonium methosulfate). After six hours of incubation in CO2 atmosphere the plates are covered with adhesive plate sealers and gently mixed on a vortex. Optical densities are determined at a wavelength of 450 nm and a reference wavelength of 650 nm. The percent reduction of cytotoxocity caused by the virus infection is calculated as follows: (OD450 compound - OD450 inf cells)/(OD450 uninf cells - OD450 inf cells)x 100 [formula]

recombinant HIV-RT = recombinant HIV-RT (Human immunodeficiency virus type 1 group M subtype B, UniProt P04585); assay: Test I (HIVRT (rAdt)), direct inhibition of recombinant HIV-RT; type: biochemical
Description: The compounds were tested for direct inhibitory activity on HIV-RT in a volume of […] recombinant HIV-RT (diluted in virus disruption buffer to give 200.000 cpm).
100 mM Tris-HCl pH 7.6, 100 mM KCl, 4 mM MgCl2, 4 mM DTT, 275 mg/ml BSA, 0.5 mg (rA)n(dT)12-18 and 0.3 mM ^3H- dTTP (specific activity […]). After 60 minutess of incubation 40 ml in duplicate were spotted on paper discs and washed in 5% TCA. After rinsing the paper discs in ethanol they were dried and counted in scintillation fluid.

SIV virus = assay: Test C (XTT), MT4 cells infected with SIV; type: cell-based; conditions: Simian immunodeficiency virus, MT4, Test C
Description: as §1, §2

HIV(II) virus = assay: Test B (XTT), MT4 cells infected with HIV(II); type: cell-based; conditions: Human immunodeficiency virus 1, MT4, Test B
Description: as §1, §2

| SMILES | inhibition at 1 µg/mL (HIV virus; 1 µg/ml) | inhibition at 10 µg/mL (HIV virus; 10 µg/ml) | inhibition at 100 µg/mL (HIV virus; 100 µg/ml) | inhibition at 0.1 µg/mL (recombinant HIV-RT) | inhibition at 1 µg/mL (recombinant HIV-RT) | inhibition at 10 µg/mL (recombinant HIV-RT; 10 µg/ml) | further results |
| --- | --- | --- | --- | --- | --- | --- | --- |
| CC(C)(C)c1csc(NC(=S)NCCc2ccccc2)n1 | 0% | 9% | 0% | 8% | 8% | 15% | inhibition at 0.1 µg/mL (HIV virus): 0% |
| COC(=O)C(=O)c1csc(NC(=S)NCCc2ccccc2)n1 | 0% | 0% | 0% | 1% | 1% | 13% | – |
| S=C(NCCc1ccccc1)Nc1nc(-c2ccc(Cl)cc2)cs1 | 0% | 0% | 18% | 1% | 1% | 1% | – |
| S=C(NCCc1ccccc1)Nc1nc(-c2ccc(Br)cc2)cs1 | 0% | 0% | 30% | 1% | 1% | 1% | – |
| S=C(NCCc1ccccc1)Nc1nc(-c2ccncc2)cs1 | 32% | 51% | – | – | – | – | % inhibition (HIV virus; 1 µg/ml): 46%; % inhibition (HIV virus; 10 µg/ml): 65% |
| CCCCCCCCCCCCCCc1sc(NC(=S)NCCc2ccccc2)nc1-c1ccc(Cl)cc1 | 0% | 0% | 33% | 1% | 1% | 1% | – |
| S=C(NCCc1ccccc1)Nc1ccccc1 | 0% | 25% | 0% | 1% | 16% | 16% | – |
| S=C(NCCc1ccccc1)Nc1ccc(Cl)cc1 | 17% | 67% | 0% | 4% | 29% | 35% | – |
| Fc1ccc(NC(=S)NCCc2ccccc2)cc1 | 5% | 41% | 0% | – | – | – | inhibition at 0.1 µg/mL (HIV virus): 0%; % inhibition (HIV virus; 10 µg/ml): 32% |
| S=C(NCCc1ccccc1)Nc1ccccc1Cl | 0% | 52% | 0% | 5% | 31% | 50% | – |
| NS(=O)(=O)c1ccc(NC(=S)NCCc2ccccc2)cc1 | 0% | 22% | – | – | – | – | inhibition at 0.1 µg/mL (HIV virus): 3% |
| CCCCOC(=O)c1ccc(NC(=S)NCCc2ccccc2)cc1 | 0% | 0% | – | – | – | – | inhibition at 0.1 µg/mL (HIV virus): 0% |
| S=C(NCCc1ccccc1)Nc1ccccn1 | 0% | 2% | 6% | – | – | – | – |
| S=C(NCCc1ccccc1)Nc1ncccn1 | 0% | 23% | 22% | 5% | 12% | 6% | – |
| Cc1ccnc(NC(=S)NCCc2ccccc2)n1 | 42% | 64% | 100% | 9% | 15% | 9% | inhibition at 1 µg/mL (SIV virus): 0%; inhibition at 10 µg/mL (SIV virus): 0%; inhibition at 100 µg/mL (SIV virus): 0%; inhibition at 1 µg/mL (HIV(II) virus): 0%; inhibition at 10 µg/mL (HIV(II) virus): 27%; inhibition at 100 µg/mL (HIV(II) virus): 100% |
| S=C(NCCc1ccccc1)Nc1cnccn1 | 4% | 100% | 100% | 1% | 27% | 36% | inhibition at 1 µg/mL (SIV virus): 2%; inhibition at 10 µg/mL (SIV virus): 20%; inhibition at 100 µg/mL (SIV virus): 100% |
| Cc1nnc(NC(=S)NCCc2ccccc2)s1 | 3% | 38% | 20% | 1% | 21% | 18% | – |

| SMILES | inhibition at 1 µg/mL (HIV virus; 1 µg/ml) | inhibition at 10 µg/mL (HIV virus; 10 µg/ml) | inhibition at 100 µg/mL (HIV virus; 100 µg/ml) | inhibition at 0.1 µg/mL (recombinant HIV-RT) | inhibition at 1 µg/mL (recombinant HIV-RT) | inhibition at 10 µg/mL (recombinant HIV-RT; 10 µg/ml) | further results |
| --- | --- | --- | --- | --- | --- | --- | --- |
| CCc1nnc(NC(=S)NCCc2ccccc2)s1 | 0% | 7% | 17% | 12% | – | 11% | % inhibition (recombinant HIV-RT; 10 µg/ml): 17% |
| S=C(NCCc1ccccc1)Nc1nncs1 | 100% | 100% | 100% | 12% | 14% | 14% | inhibition at 1 µg/mL (SIV virus): 0%; inhibition at 10 µg/mL (SIV virus): 17%; inhibition at 100 µg/mL (SIV virus): 0%; inhibition at 1 µg/mL (HIV(II) virus): 100%; inhibition at 10 µg/mL (HIV(II) virus): 57%; inhibition at 100 µg/mL (HIV(II) virus): 96% |
| S=C(NCCc1ccccc1)Nc1ncco1 | 0% | 0% | – | – | – | – | inhibition at 0.1 µg/mL (HIV virus): 0% |
| S=C(NCCc1ccccc1)Nc1cc[nH]n1 | 0% | 0% | 0% | 1% | 8% | 38% | – |
| S=C(NCCc1ccccc1)Nc1cnc2ccccc2c1 | 0% | 71% | 0% | – | – | – | – |
| S=C(NCCc1ccccc1)NCc1ccco1 | 10% | 7% | – | 7% | 12% | 10% | inhibition at 0.1 µg/mL (HIV virus): 3% |
| Cc1cccc2sc(NC(=S)NCCc3ccccc3)nc12 | 8% | 28% | 50% | 12% | 12% | 24% | – |
| CCOc1ccc2nc(NC(=S)NCCc3ccccc3)sc2c1 | 0% | 5% | 33% | 1% | 5% | 8% | – |
| S=C(NCCc1ccccc1)N1CCCc2ccccc21 | 0% | 0% | – | – | – | – | – |
| S=C(NCCc1ccccc1)N1CCCCC1 | 0% | 0% | – | – | – | – | inhibition at 0.1 µg/mL (HIV virus): 0% |
| CN1CCN(C(=S)NCCc2ccccc2)CC1 | 0% | 0% | 0% | – | – | – | – |
| S=C(NCCc1ccccc1)N1CCOCC1 | 13% | 9% | – | – | – | – | inhibition at 0.1 µg/mL (HIV virus): 0% |
| COc1ccc(CCNC(=S)Nc2nccs2)cc1OC | – | 54% | 0% | – | – | – | % inhibition (HIV virus; 10 µg/ml): 58% |
| S=C(NCCc1ccc(Cl)cc1)Nc1nccs1 | – | 79% | 73% | – | – | – | % inhibition (HIV virus; 10 µg/ml): 93%; % inhibition (HIV virus; 100 µg/ml): 71% |
| Fc1cccc(Cl)c1CCNC(=S)Nc1nccs1 | 100% | – | – | 43% | 77% | 92% | % inhibition (HIV virus; 1 µg/ml): 98%; % inhibition (HIV virus; 10 µg/ml): 52% |
| CCOc1ccccc1CCNC(=S)Nc1nccs1 | 96% | 100% | 100% | 12% | 30% | 33% | inhibition at 1 µg/mL (SIV virus): 0%; inhibition at 10 µg/mL (SIV virus): 5%; inhibition at 100 µg/mL (SIV virus): 0%; inhibition at 1 µg/mL (HIV(II) virus): 100%; inhibition at 10 µg/mL (HIV(II) virus): 91%; inhibition at 100 µg/mL (HIV(II) virus): 100% |
